Laboratory results: PubChem BioAssay AID1197 (NMMLSC, 2008)
Active and inactive are the calls of the source. How the calls were made is not given here.

test: cytotoxicity in LNCaP prostate cancer cells – cell-based, flow cytometry, event count, cytotoxicity control for prostate cell differentiation activator project, dose response (AID 1197); details: LNCaP cell loss, flow cytometry event count, 4 d; at 30 µM (top of the series)

Compound | event count (lower = more killing)
CC(C)(C)c1ccc(C(O)CCCN2CCC(C(O)(c3ccccc3)c3ccccc3)CC2)cc1 (centres undefined) | 23.5% (inactive)
Cc1cc(N2CCN(C)CC2)nc2ccc(NC(=O)c3ccc4c(c3)OCO4)cc12 | 80.5% (inactive)
CCN1CCN(C(c2cccs2)C(C)NS(=O)(=O)c2ccc(Br)cc2)CC1 (centres undefined) | 282% (inactive)
Cc1ccc(Cl)cc1N1CCN(C(=O)c2cc3c(=O)n(C)c4ccccc4c3n2C)CC1 | 26.8% (inactive)
Cc1oc(-c2ccc(Cl)cc2)nc1CN1CCC(C(=O)N2CCN(Cc3ccccc3)CC2)CC1 | 91.8% (inactive)
Nc1ccc(-n2ccnc2)cc1 | 282% (inactive)
COc1cc2nc(N3CCN(C(=O)C4COc5ccccc5O4)CC3)nc(N)c2cc1OC (centres undefined) | 104% (inactive)
COc1ccc(Cc2nc(-c3ccc(-n4cccc4)cc3)no2)cc1OC | 104% (inactive)
CCN1CCN(CCNC(=O)C2CCN(Cc3nc(-c4ccc(Cl)cc4)oc3C)CC2)CC1 | 83.2% (inactive)
COc1ccccc1NC(=O)c1nc[nH]c1C(=O)Nc1ccccc1OC | 87.2% (inactive)
Cc1ccccc1-c1nc(CN2CCC(C(=O)NCCCN3CCOCC3)CC2)c(C)o1 | 109% (inactive)
O=C(Cn1cc2c(n1)CCCC2)NCCCN1CCN(c2ccccc2F)CC1 | 333% (inactive)
O=C(NCCCN1CCN(c2cccc(Cl)c2)CC1)c1cccc(N2CCCC2=O)c1 | 305% (inactive)
CN(CCNC(=O)C1CC(=O)N(c2ccc(F)c(Cl)c2)C1)Cc1ccccc1 (centres undefined) | 343% (inactive)
Clc1ccc(COC(Cn2ccnc2)c2ccc(Cl)cc2Cl)cc1 (centres undefined) | 223% (inactive)
CCCS(=O)(=O)N1CCCC(C(=O)NCCCN2CCN(c3ccc(F)cc3)CC2)C1 (centres undefined) | 238% (inactive)
Cn1c(C(=O)NCCCN2CCN(c3cccc(Cl)c3)CC2)cc2c(=O)n(C)c3ccccc3c21 | 137% (inactive)
Oc1c(CN2CCCCC2)cc(COCc2ccccc2)c2cccnc12 | 137% (inactive)
CCCc1cc(-c2n[nH]c(C)c2-c2ccc(C(=O)OCC)o2)c(O)cc1O | 98.2% (inactive)
CCN1CCN(c2cc(C)c3cc(NC(=O)c4ccc(Br)o4)ccc3n2)CC1 | 55.2% (inactive)
COc1ccc(-c2ccc(-c3noc(-c4ccccc4)n3)c(OC)n2)cc1 | 153% (inactive)
Cc1cc(C)nc(N2CCC(C(=O)Nc3ccc(Oc4ccccc4)cc3)CC2)n1 | 170% (inactive)

Compound | event count (lower = more killing)
COc1ccc(N2CCN(CCCNC(=O)CC3Oc4ccc(C)cc4NC3=O)CC2)cc1 (centres undefined) | 343% (inactive)
Cc1ccccc1-c1nc(CN2CCCC(C(=O)NCCCN3CCOCC3)C2)c(C)o1 (centres undefined) | 187% (inactive)
CCN(CC)CCNC(=O)c1cc2c(-c3ccc(Cl)cc3)nn(C)c2s1 | 140% (inactive)
CCOc1ccccc1NC(=O)c1nc[nH]c1C(=O)Nc1ccccc1OCC | 257% (inactive)
CCn1c(=O)cc(SCC(=O)NCCN2CCN(Cc3ccccc3)CC2)c2ccccc21 | 306% (inactive)
CN(C)CCCN1c2ccccc2CCc2ccc(Cl)cc21 | 32.2% (inactive)
COc1ccc(N2CCN(CCCNC(=O)c3cc4sccc4n3C)CC2)cc1 | 282% (inactive)
Cc1ccccc1-c1nc(CN2CCC(C(=O)NCc3cccnc3)CC2)c(C)o1 | 295% (inactive)
CCN(CC)CCNC(=O)c1ccc(N2CCCCC2)c(NS(=O)(=O)c2ccc(C)cc2)c1 | 70.8% (inactive)
O=C(CCN1C(=O)COc2ccccc21)NCCCN1CCN(c2ccc(F)cc2)CC1 | 279% (inactive)
CC1CCCCN1CCNC(=O)c1ccc2c(=O)n(CCc3ccccc3)c(=O)[nH]c2c1 (centres undefined) | 191% (inactive)
Cn1c(=O)cc(SCC(=O)NCCCN2CCN(c3ccccc3F)CC2)c2ccccc21 | 258% (inactive)
Cc1ccc(CNc2nc3ccccc3n3nnnc23)cc1 | 128% (inactive)
CCCOc1ccccc1C1CC(=O)Nc2cc3c(cc21)OCO3 (centres undefined) | 21.8% (inactive)
Cc1ccccc1-c1nc(CN2CCC(C(=O)NCCCN3CC(C)CC(C)C3)CC2)c(C)o1 (centres undefined) | 108% (inactive)
CN(C)c1ccc(CNC2CC(C)(C)NC(C)(C)C2)cc1 | 284% (inactive)
COc1ccc(CCn2c(=N)c(C(=O)NCc3ccco3)cc3c(=O)n4ccccc4nc32)cc1 | 37.8% (inactive)
O=C(c1ccccc1)c1ccc(N2CCNCC2)cc1 | 236% (inactive)
Cc1ccc(C)c(N2CCN(CCCNC(=O)Cn3cc4c(n3)CCCCC4)CC2)c1 | 71.8% (inactive)
Cc1ccccc1-c1nc(CN2CCC(C(=O)NCCCN3CCCC3)CC2)c(C)o1 | 76.5% (inactive)
O=C(NCCCN1CCN(c2ccc(F)cc2)CC1)c1cccc(N2CCCC2=O)c1 | 191% (inactive)
CCOC(=O)c1c(C)n(C)c2ccc(OCC(O)CNC(CC)CO)cc12 (centres undefined) | 115% (inactive)
